4 compounds from US7776893B2, “Use of PDE4 inhibitors for the treatment of diabetes mellitus” (NYCOMED GmbH, priority 2003, dated 2010) can be followed below.

What all share (format): in vivo
In data set [1] the test system is C57BLKS db/db mice. In words: 10 days study: oral glucose tolerance, blood glucose 15 minutes after glucose application. The note with it: fasted 24 h, 15 minutes after 1 g/kg oral glucose. The method, then:
(§1) Female C57BLKS db/db mice obtained from M&B A/S (8680 Ry, Denmark) were used In the studies at 10 to 11 weeks of age. Mice were housed 10 per cage and allowed free access to water and chow (chow 3433, Provimi Kliba SA, 4303 Kaiseraugst, Switzerland).
(§2) Mice were allowed to acclimate to the local animal facilities for 1 week and retro-orbital blood samples were obtained 3 to 7 days prior to the start of the study.
(§3) Mice were treated with vehicle or a selected PDE4 inhibitor compound once daily in the morning. The selective PDE4 inhibitor compounds to be tested were suspended in 4% methocel and applied via oral gavage using oral feeding & dosing needles (outer diameter: 1.5 mm, TSE GmbH, 61350 Bad Homburg, Germany). A volume of 10 ml/kg body weight was administered for each dose.
10 days studies: Mice were treated with vehicle or a selected PDE4 inhibitor compound once daily in the morning. On day 9, mice were fasted for 24 hours by removing chow 1 hour after drug application. On day 10, glucose tolerance was assessed by oral application of 1 g/kg/10 ml glucose. Blood was sampled 15 minutes after glucose application and levels of glucose (accu-chek, Roche Diagnostics GmbH, 68298 Mannheim, Germany) were measured.

For data set [2], the system named is C57BLKS db/db mice. The data set is described as follows: 56 days study: fasting blood glucose and oral glucose tolerance. Conditions: for Blood glucose 15 min after glucose application: 1 g/kg oral glucose; for Blood glucose fasting: fasted 24 h. How it is done: as §1, §2, §3
(§4) 56 days studies: Mice were treated with vehicle or a selected PDE4 inhibitor compound once daily in the morning. On day 55, mice were fasted for 24 hours by removing chow 1 hour after drug application. On day 56, fasting blood glucose levels were measured and glucose tolerance was assessed by oral application of 1 g/kg/10 ml glucose. Blood was sampled 15 minutes after glucose application and levels of glucose (accu-chek, Roche Diagnostics GmbH, 68298 Mannheim, Germany) and lactate (lactate reagent, Sigma-Aldrich GmbH, 82039 Deisenhofen, Germany) were measured.

The test system of data set [3] is C57BLKS db/db mice. The data set is described as follows: 56 days study: lactate levels, fasting and after glucose application. The note with it: for Lactate 15 min after glucose application: 1 g/kg oral glucose; for Lactate fasting: serum, fasted 24 h. How it is done:
as §1, §2, §3, §4

In the case of `COc1cc2c(cc1OC)[C@@H]1CCCC[C@@H]1N=C2c1ccc(C(=O)O)cc1.Cl` [COMPOUND C, (+)-cis-8,9-Dimethoxy-6-(4-carboxyphenyl)-1,2,3,4,4a,10b-hexahydrophenanthridine Hydrochloride], the Blood glucose in data set [1] (3 mg/kg oral once daily) came to 506 mg/dL; in data set [1] (30 mg/kg oral once daily), 449 mg/dL.
`CCn1nnc(-c2ccc(C3=N[C@H]4CCCC[C@H]4c4cc(OC)c(OC)cc43)cc2)n1` [COMPOUND D, (−)-cis-6-[4-(2-Ethyl-2H-tetrazol-5-yl)-phenyl]-8,9-dimethoxy-1,2,3,4,4a,10b-hexahydrophenanthridine]: the Blood glucose is 437 mg/dL in data set [1] (3 mg/kg oral once daily) and 285 mg/dL in data set [1] (30 mg/kg oral once daily).
The like results for `COc1cc2c(cc1OC)[C@@H]1CCCC[C@@H]1N=C2c1ccc(C(=O)c2ccccc2)cc1` [COMPOUND B, (−)-cis-8,9-Dimethoxy-6-(4-benzoylphenyl)-1,2,3,4,4a,10b-hexahydrophenanthridine] were, in that order, 362 mg/dL and 251 mg/dL.
As for `COc1cc2c(cc1OC)[C@@H]1CCCC[C@@H]1N=C2c1ccc(OCC2CC2)c(OCC2CC2)c1` [COMPOUND A, (−)-cis-8,9-Dimethoxy-6-[3,4-bis-(cyclopropylmethoxy)phenyl]-1,2,3,4,4a,10b-hexahydrophenanthridine], the Blood glucose amounted to 507 mg/dL in data set [1] (3 mg/kg oral once daily) and 411.5 mg/dL in data set [1] (30 mg/kg oral once daily). Also, the “Blood glucose 15 min after glucose application” value is 580 mg/dL in data set [2] (3 mg/kg oral once daily) and 352 mg/dL in data set [2] (30 mg/kg oral once daily). The Blood glucose fasting in data set [2] (3 mg/kg oral once daily) was 279 mg/dL; in data set [2] (30 mg/kg oral once daily), 193 mg/dL. In addition, the “Lactate 15 min after glucose application” value came to 70 mg/dL in data set [3] (3 mg/kg oral once daily) and 61 mg/dL in data set [3] (30 mg/kg oral once daily). In addition, the figures for the Lactate fasting in data set [3] (3 mg/kg oral once daily) and in data set [3] (30 mg/kg oral once daily) were 49 mg/dL and 43 mg/dL, respectively.
